# Measurements reported in PubChem BioAssay AID1745844 (Carcinogenic Potency Database (CPDB), 2022).
# The source made the active and inactive calls. No rule for the calls is given here.
# System: rodent lifetime carcinogenesis bioassay, tumor incidence TD50
# Test: chronic cancer bioassays in animals – CPDB, compiled studies (AID 1745844)
smiles,measurement,setting,value
CCO,carcinogen call,"hamster, strain Syrian Golden, males, in drinking water, site: trachea, lesion: one or several types, types not named, dosed 29 weeks, study length 78 weeks",negative (inactive)
same,TD50,"mouse, strain A, males, in drinking water, site: liver, lesion: hepatocellular adenoma, dosed 72 weeks, study length 72 weeks",127000 mg/kg/day
same,carcinogen call,"mouse, strain BALB/c, males, in drinking water, site: forestomach, lesion: squamous-cell papilloma, dosed 69 weeks, study length 86 weeks",negative (inactive)
same,TD50,"mouse, strain Swiss, females, in drinking water, site: any site (literature study), lesion: several types, types named in the paper, dosed 69 weeks, study length 86 weeks",21400 mg/kg/day (inactive)
same,TD50,"mouse, strain Swiss, females, in drinking water, site: forestomach, lesion: squamous-cell papilloma, dosed 69 weeks, study length 86 weeks",10900 mg/kg/day (inactive)
same,carcinogen call,"mouse, strain Swiss, males, in drinking water, site: lung, lesion: adenoma, dosed 69 weeks, study length 86 weeks",negative (inactive)
same,TD50,"rat, strain ACI, males, in drinking water, site: forestomach, lesion: papilloma, dosed 52 weeks, study length 52 weeks",4980 mg/kg/day
same,carcinogen call,"rat, strain Charles River CD (Sprague-Dawley), females, in drinking water, site: any site (literature study), lesion: one or several types, types not named, dosed 104 weeks, study length 104 weeks",negative (inactive)
same,carcinogen call,"rat, strain Charles River CD (Sprague-Dawley), females, in drinking water, site: liver, lesion: neoplastic nodule, dosed 104 weeks, study length 104 weeks",negative (inactive)
same,carcinogen call,"rat, strain Charles River CD (Sprague-Dawley), males, in drinking water, site: any site (literature study), lesion: one or several types, types not named, dosed 104 weeks, study length 104 weeks",negative (inactive)
same,carcinogen call,"rat, strain Charles River CD (Sprague-Dawley), males, in drinking water, site: liver, lesion: hepatocellular carcinoma, dosed 104 weeks, study length 104 weeks",negative (inactive)
same,TD50,"rat, strain Charles River CD (Sprague-Dawley), males, in drinking water, site: liver, lesion: neoplastic nodule, dosed 104 weeks, study length 104 weeks",84800 mg/kg/day (inactive)
same,carcinogen call,"rat, strain F344/DuCrj, males, in drinking water, site: forestomach, lesion: one or several types, types not named, dosed 51 weeks, study length 52 weeks",negative (inactive)
same,carcinogen call,"rat, strain F344/DuCrj, males, in drinking water, site: stomach, glandular, lesion: one or several types, types not named, dosed 51 weeks, study length 52 weeks",negative (inactive)
same,TD50,"rat, strain Slc-Wistar, males, in drinking water, site: liver, lesion: hepatocellular adenoma, dosed 120 weeks, study length 120 weeks",56100 mg/kg/day (inactive)
same,TD50,"rat, strain Slc-Wistar, males, in drinking water, site: liver, lesion: hepatocellular carcinoma, dosed 120 weeks, study length 120 weeks",93900 mg/kg/day (inactive)
same,TD50,"rat, strain Slc-Wistar, males, in drinking water, site: liver, lesion: several types, types named in the paper, dosed 120 weeks, study length 120 weeks",33800 mg/kg/day (inactive)
same,carcinogen call,"rat, strain Sprague-Dawley, both sexes, in drinking water, site: any site (literature study), lesion: malignant tumor, dosed 111 weeks, study length 111 weeks",negative (inactive)
same,TD50,"rat, strain Sprague-Dawley, females, in drinking water, site: any site (literature study), lesion: malignant tumor, dosed 104 weeks, study length 120 weeks",61000 mg/kg/day
same,TD50,"rat, strain Sprague-Dawley, females, in drinking water, site: any site (literature study), lesion: several types, types named in the paper, dosed 104 weeks, study length 120 weeks",5870 mg/kg/day
same,TD50,"rat, strain Sprague-Dawley, females, in drinking water, site: liver, lesion: hepatocellular adenoma, dosed 104 weeks, study length 120 weeks",201000 mg/kg/day
same,TD50,"rat, strain Sprague-Dawley, females, in drinking water, site: mammary gland, lesion: benign tumor, dosed 104 weeks, study length 120 weeks",6070 mg/kg/day
same,TD50,"rat, strain Sprague-Dawley, females, in drinking water, site: mammary gland, lesion: fibroadenoma, dosed 104 weeks, study length 120 weeks",8790 mg/kg/day
same,TD50,"rat, strain Sprague-Dawley, females, in drinking water, site: mammary gland, lesion: several types, types named in the paper, dosed 104 weeks, study length 120 weeks",4710 mg/kg/day
same,TD50,"rat, strain Sprague-Dawley, females, in drinking water, site: pancreas, lesion: adenoma, dosed 104 weeks, study length 120 weeks",21900 mg/kg/day
same,TD50,"rat, strain Sprague-Dawley, females, in drinking water, site: pituitary gland, lesion: neoplasm, NOS, dosed 104 weeks, study length 120 weeks",5480 mg/kg/day
same,TD50,"rat, strain Sprague-Dawley, males, in drinking water, site: adrenal gland, lesion: one or several types, types not named, dosed 130 weeks, study length 130 weeks",13700 mg/kg/day
same,TD50,"rat, strain Sprague-Dawley, males, in drinking water, site: any site (literature study), lesion: malignant tumor, dosed 104 weeks, study length 120 weeks",7180 mg/kg/day
same,TD50,"rat, strain Sprague-Dawley, males, in drinking water, site: any site (literature study), lesion: several types, types named in the paper, dosed 104 weeks, study length 120 weeks",1210 mg/kg/day
same,TD50,"rat, strain Sprague-Dawley, males, in drinking water, site: any site (literature study), lesion: several types, types named in the paper, dosed 130 weeks, study length 130 weeks",2130 mg/kg/day
same,TD50,"rat, strain Sprague-Dawley, males, in drinking water, site: liver, lesion: hepatocellular carcinoma, dosed 104 weeks, study length 120 weeks",164000 mg/kg/day
same,TD50,"rat, strain Sprague-Dawley, males, in drinking water, site: liver, lesion: hepatocellular carcinoma, dosed 130 weeks, study length 130 weeks",28400 mg/kg/day
same,TD50,"rat, strain Sprague-Dawley, males, in drinking water, site: liver, lesion: hyperplastic nodule, dosed 130 weeks, study length 130 weeks",8260 mg/kg/day
same,TD50,"rat, strain Sprague-Dawley, males, in drinking water, site: pancreas, lesion: carcinoma, dosed 104 weeks, study length 120 weeks",17500 mg/kg/day
same,TD50,"rat, strain Sprague-Dawley, males, in drinking water, site: pancreas, lesion: one or several types, types not named, dosed 130 weeks, study length 130 weeks",13700 mg/kg/day
same,TD50,"rat, strain Sprague-Dawley, males, in drinking water, site: pancreas, lesion: several types, types named in the paper, dosed 104 weeks, study length 120 weeks",33200 mg/kg/day
same,TD50,"rat, strain Sprague-Dawley, males, in drinking water, site: pituitary gland, lesion: one or several types, types not named, dosed 130 weeks, study length 130 weeks",9110 mg/kg/day
C=CC,carcinogen call,"mouse, strain B6C3F1, females, inhaled, site: any site (literature study), lesion: several types, types named in the paper, dosed 103 weeks, study length 105 weeks",negative (inactive)
same,carcinogen call,"mouse, strain B6C3F1, males, inhaled, site: any site (literature study), lesion: several types, types named in the paper, dosed 103 weeks, study length 105 weeks",negative (inactive)
same,TD50,"mouse, strain Swiss, females, inhaled, site: any site (literature study), lesion: malignant tumor, dosed 78 weeks, study length 104 weeks",20100 mg/kg/day (inactive)
same,TD50,"mouse, strain Swiss, females, inhaled, site: any site (literature study), lesion: several types, types named in the paper, dosed 78 weeks, study length 104 weeks",10100 mg/kg/day (inactive)
same,TD50,"mouse, strain Swiss, females, inhaled, site: liver, lesion: hepatoma, dosed 78 weeks, study length 104 weeks",286000 mg/kg/day (inactive)
same,TD50,"mouse, strain Swiss, females, inhaled, site: lung, lesion: adenocarcinoma, dosed 78 weeks, study length 104 weeks",1.2e+06 mg/kg/day (inactive)
same,TD50,"mouse, strain Swiss, females, inhaled, site: lung, lesion: adenoma, dosed 78 weeks, study length 104 weeks",19800 mg/kg/day (inactive)
same,carcinogen call,"mouse, strain Swiss, males, inhaled, site: any site (literature study), lesion: malignant tumor, dosed 78 weeks, study length 104 weeks",negative (inactive)
same,carcinogen call,"mouse, strain Swiss, males, inhaled, site: any site (literature study), lesion: several types, types named in the paper, dosed 78 weeks, study length 104 weeks",negative (inactive)
same,carcinogen call,"mouse, strain Swiss, males, inhaled, site: liver, lesion: hepatoma, dosed 78 weeks, study length 104 weeks",negative (inactive)
same,carcinogen call,"mouse, strain Swiss, males, inhaled, site: lung, lesion: adenocarcinoma, dosed 78 weeks, study length 104 weeks",negative (inactive)
same,carcinogen call,"mouse, strain Swiss, males, inhaled, site: lung, lesion: adenoma, dosed 78 weeks, study length 104 weeks",negative (inactive)
same,carcinogen call,"rat, strain Fischer 344, females, inhaled, site: any site (literature study), lesion: several types, types named in the paper, dosed 103 weeks, study length 104 weeks",negative (inactive)
same,TD50,"rat, strain Fischer 344, females, inhaled, site: liver, lesion: hepatocellular adenoma + hepatocellular carcinoma + neoplastic nodule, dosed 103 weeks, study length 104 weeks",20500 mg/kg/day
same,TD50,"rat, strain Fischer 344, males, inhaled, site: any site (literature study), lesion: several types, types named in the paper, dosed 103 weeks, study length 104 weeks",15500 mg/kg/day (inactive)
same,TD50,"rat, strain Fischer 344, males, inhaled, site: liver, lesion: hepatocellular adenoma + hepatocellular carcinoma + neoplastic nodule, dosed 103 weeks, study length 104 weeks",4610 mg/kg/day
CC(C)(C)NCC(O)c1cc(O)cc(O)c1 (centres undefined),TD50,"rat, strain Charles River CD (Sprague-Dawley), females, in feed, site: mesovarium, lesion: leiomyoma, dosed 104 weeks, study length 104 weeks",410 mg/kg/day
CN(C)C(=O)NC1CC2CC1C1CCCC21 (centres undefined),carcinogen call,"mouse, strain B6AKF1, females, oral dosing, site: any site (literature study), lesion: several types, types named in the paper, dosed 76 weeks, study length 76 weeks",negative (inactive)
same,carcinogen call,"mouse, strain B6AKF1, females, oral dosing, site: liver, lesion: hepatoma, dosed 76 weeks, study length 76 weeks",negative (inactive)
same,carcinogen call,"mouse, strain B6AKF1, females, oral dosing, site: lung, lesion: adenoma, dosed 76 weeks, study length 76 weeks",negative (inactive)
same,carcinogen call,"mouse, strain B6AKF1, males, oral dosing, site: any site (literature study), lesion: several types, types named in the paper, dosed 76 weeks, study length 76 weeks",negative (inactive)
same,carcinogen call,"mouse, strain B6AKF1, males, oral dosing, site: liver, lesion: hepatoma, dosed 76 weeks, study length 76 weeks",negative (inactive)
same,carcinogen call,"mouse, strain B6AKF1, males, oral dosing, site: lung, lesion: adenoma, dosed 76 weeks, study length 76 weeks",negative (inactive)
same,TD50,"mouse, strain B6C3F1, females, oral dosing, site: any site (literature study), lesion: several types, types named in the paper, dosed 76 weeks, study length 76 weeks",1230 mg/kg/day (inactive)
same,carcinogen call,"mouse, strain B6C3F1, females, oral dosing, site: liver, lesion: hepatoma, dosed 76 weeks, study length 76 weeks",negative (inactive)
same,TD50,"mouse, strain B6C3F1, females, oral dosing, site: lung, lesion: adenoma, dosed 76 weeks, study length 76 weeks",1230 mg/kg/day (inactive)
same,TD50,"mouse, strain B6C3F1, males, oral dosing, site: any site (literature study), lesion: several types, types named in the paper, dosed 76 weeks, study length 76 weeks",259 mg/kg/day (inactive)
same,TD50,"mouse, strain B6C3F1, males, oral dosing, site: liver, lesion: hepatoma, dosed 76 weeks, study length 76 weeks",359 mg/kg/day (inactive)
same,carcinogen call,"mouse, strain B6C3F1, males, oral dosing, site: lung, lesion: several types, types named in the paper, dosed 76 weeks, study length 76 weeks",negative (inactive)
NNCCO,TD50,"hamster, strain Syrian Golden, females, in drinking water, site: liver, lesion: hepatoma, dosed 84 weeks, study length 84 weeks",148 mg/kg/day (inactive)
same,TD50,"hamster, strain Syrian Golden, males, in drinking water, site: liver, lesion: hepatoma, dosed 84 weeks, study length 84 weeks",84.4 mg/kg/day (inactive)
same,TD50,"mouse, strain B6AKF1, females, oral dosing, site: any site (literature study), lesion: several types, types named in the paper, dosed 78 weeks, study length 78 weeks",5.34 mg/kg/day
same,TD50,"mouse, strain B6AKF1, males, oral dosing, site: any site (literature study), lesion: several types, types named in the paper, dosed 78 weeks, study length 78 weeks",0.404 mg/kg/day
same,TD50,"mouse, strain B6AKF1, males, oral dosing, site: liver, lesion: hepatoma, dosed 78 weeks, study length 78 weeks",0.314 mg/kg/day
same,TD50,"mouse, strain B6C3F1, females, oral dosing, site: any site (literature study), lesion: several types, types named in the paper, dosed 78 weeks, study length 78 weeks",4.77 mg/kg/day
same,TD50,"mouse, strain B6C3F1, females, oral dosing, site: liver, lesion: hepatoma, dosed 78 weeks, study length 78 weeks",4.77 mg/kg/day
same,TD50,"mouse, strain B6C3F1, females, oral dosing, site: lung, lesion: adenoma, dosed 78 weeks, study length 78 weeks",4.77 mg/kg/day
same,TD50,"mouse, strain B6C3F1, males, oral dosing, site: any site (literature study), lesion: several types, types named in the paper, dosed 78 weeks, study length 78 weeks",0.713 mg/kg/day
same,TD50,"mouse, strain B6C3F1, males, oral dosing, site: liver, lesion: hepatoma, dosed 78 weeks, study length 78 weeks",0.541 mg/kg/day
same,carcinogen call,"mouse, strain Swiss, females, in drinking water, site: lung, lesion: one or several types, types not named, dosed 75 weeks, study length 75 weeks",negative (inactive)
same,carcinogen call,"mouse, strain Swiss, males, in drinking water, site: liver, lesion: several types, types named in the paper, dosed 75 weeks, study length 75 weeks",negative (inactive)
same,carcinogen call,"mouse, strain Swiss, males, in drinking water, site: lung, lesion: one or several types, types not named, dosed 75 weeks, study length 75 weeks",negative (inactive)
